Assay results reported in US7935670B2, “Hepatitis C virus inhibitors” (Bristol-Myers Squibb Company, priority 2006, dated 2011).
Like-named read-outs stand apart in the source and are kept apart here.

Columns and labels:
[1] = system: HCV replicon in HUH-7 cells; test: HCV replicon FRET assay; assay type: cell-based, HCV strain 1b; conditions: Hepatitis C virus
Text: An HCV replicon whole cell system was established as described by Lohmann V, Korner F, Koch J, Herian U, Theilmann L, Bartenschlager R., Science 285(5424): 110-3 (1999). This system enabled us to evaluate the effects of our HCV Protease compounds on HCV RNA replication. Briefly, using the HCV strain 1b sequence described in the Lohmann paper (Assession number: AJ238799), an HCV cDNA was synthesized by Operon Technologies, Inc. (Alameda, Calif.), and the full-length replicon was then assembled in plasmid pGem9zf(+) (Promega, Madison, Wis.) using standard molecular biology techniques. The replicon consists of (i) the HCV 5′ UTR fused to the first 12 amino acids of the capsid protein, (ii) the neomycin phosphotransferase gene (neo), (iii) the IRES from encephalomyocarditis virus (EMCV), and (iv) HCV NS3 to NS5B genes and the HCV 3′ UTR. Plasmid DNAs were linearized with ScaI and RNA transcripts were synthesized in vitro using the T7 MegaScript transcription kit (Ambion, Austin, Tex.) according to manufacturer's directions. In vitro transcripts of the cDNA were transfected into the human hepatoma cell line, HUH-7. […] Resulting cell lines were characterized for positive and negative strand RNA production and protein production over time.
The HCV replicon FRET assay was developed to monitor the inhibitory effects of compounds described in the disclosure on HCV viral replication. HUH-7 cells, constitutively expressing the HCV replicon, were grown in Dulbecco's Modified Eagle Media (DMEM) (Gibco-BRL) containing 10% Fetal calf serum (FCS) (Sigma) and 1 mg/ml G418 (Gibco-BRL). Cells were seeded the night before (1.5×10^4 cells/well) in 96-well tissue-culture sterile plates. Compound and no compound controls were prepared in DMEM containing 4% FCS, 1:100 Penicillin/Streptomysin (Gibco-BRL), 1:100 L-glutamine and 5% DMSO in the dilution plate (0.5% DMSO final concentration in the assay). Compound/DMSO mixes were added to the cells and incubated for 4 days at 37° C. After 4 days, cells were first assessed for cytotoxicity using alamar Blue (Trek Diagnotstic Systems) for a CC50 reading. The toxicity of compound (CC50) was determined by adding 1/10th volume of alamar Blue to the media incubating the cells. After 4 h, the fluorescence signal from each well was read, with an excitation wavelength at 530 nm and an emission wavelength of 580 nm, using the Cytofluor Series 4000 (Perspective Biosystems). Plates were then rinsed thoroughly with Phosphate-Buffered Saline (PBS) (3 times 150 μl). The cells were lysed with 25 μl of a lysis assay reagent containing an HCV protease substrate (5× cell Luciferase cell culture lysis reagent (Promega #E153A) diluted to 1× with distilled water, NaCl added to 150 mM final, the FRET peptide substrate (as described for the enzyme assay above) diluted to 10 μM final from a 2 mM stock in 100% DMSO. The plate was then placed into the Cytofluor 4000 instrument which had been set to 340 nm excitation/490 nm emission, automatic mode for 21 cycles and the plate read in a kinetic mode. EC50 determinations were carried out as described for the IC50 determinations.

[2] = target: T1, porcine pancreatic elastase (PPE) (Sus scrofa, UniProt P00772); test: Specificity assay, porcine pancreatic elastase; assay type: biochemical; conditions: 2 h enzyme-inhibitor pre-incubation
T1 construct: purchased Sigma
Procedure: The specificities of compounds of the present disclosure were determined against a variety of serine proteases: human neutrophil elastase (HNE), porcine pancreatic elastase (PPE) and human pancreatic chymotrypsin and one cysteine protease: human liver cathepsin B. In all cases a 96-well plate format protocol using colorimetric p-nitroaniline (pNA) substrate specific for each enzyme was used as described previously (PCT Patent Application No. WO 00/09543) with some modifications to the serine protease assays. All enzymes were purchased from Sigma while the substrates were from Bachem.
Each assay included a 2 h enzyme-inhibitor pre-incubation at room temperature followed by addition of substrate and hydrolysis to ˜30% conversion as measured on a Spectramax Pro microplate reader. Compound concentrations varied from 100 to 0.4 μM depending on their potency.
50 mM Tris(hydroxymethyl)aminomethane hydrochloride (Tris-HCl) pH 8, 0.5 M Sodium Sulfate (Na2SO4), 50 mM NaCl, 0.1 mM EDTA, 3% DMSO, 0.01% Tween-20 with:
133 μM succ-AAA-pNA and 20 nM HNE or 8 nM PPE; 100 μM succ-AAPF-pNA and […] Chymotrypsin.
The percentage of inhibition was calculated using the formula: [1−((UVinh−UVblank)/(UVctl−UVblank))]×100
A non-linear curve fit was applied to the inhibition-concentration data, and the 50% effective concentration (IC50) was calculated by the use of Excel Xl-fit software.

T1 sequence (P00772 27-266): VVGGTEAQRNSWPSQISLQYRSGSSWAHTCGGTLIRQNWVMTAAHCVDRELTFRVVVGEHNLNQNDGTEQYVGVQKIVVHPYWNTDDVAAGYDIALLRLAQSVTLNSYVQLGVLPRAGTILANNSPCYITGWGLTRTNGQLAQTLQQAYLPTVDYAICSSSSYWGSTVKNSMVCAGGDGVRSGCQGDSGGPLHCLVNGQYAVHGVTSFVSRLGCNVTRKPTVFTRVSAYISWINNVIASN

With C=C[C@@H]1C[C@]1(NC(=O)[C@@H]1C[C@@H](OC(=O)c2ccccc2)CN1C(=O)[C@@H](NC(=O)OC(C)(C)C)C(C)(C)C)C(=O)NS(=O)(=O)C1CC1 [Compound 1] as the compound, how does the EC50 ([1]; 96 h, HUH-7 replicon cells, 4 days, read-out: EC50 in the replicon FRET assay) read?
Its EC50 is 484 nM.

What about the EC50 ([1]; Huh-7, read-out: Activity Range (EC50)) of the same compound?
The EC50 was 200 to 1000 nM.

And the IC50 [2]?
The IC50 was greater than 200000 nM.
